# Reference: article PMC9425435, “Antiviral Profiling of C-18- or C-19-Functionalized Semisynthetic Abietane Diterpenoids” (Journal of Natural Products, 2022)
# What was measured:
# ZIKV (Zika virus) = test: Plaque reduction assay (PFU), ZIKV in Vero E6; type: cell-based
# [1] = tested on: Colombian Zika virus strains; test: Anti-Zika EC50 summarised over Colombian strains (abstract); type: cell-based; conditions: read-out: EC50 against Colombian Zika virus strains
# Zika_459148 virus strain = test: Post-infection stage evaluation assay (plaque), Zika_459148
# ZIKV/Col [2] = test: Intracellular quantification of viral protein by cell-ELISA, ZIKV/Col; type: cell-based, Zika virus; conditions: all concentrations evaluated (3.1-25.0 μg/mL)
# Vero-E6 cells = test: Cytotoxicity CC100 in Vero-E6 cells (72 h); conditions: Vero-E6 cells, 72h
# ZIKV/Col [3] = test: Quantification of infectious viral particles by plaque assay, ZIKV/Col post-treatment; type: cell-based, Zika virus; conditions: for percentage of infection (infectious viral particles, plaque assay): ZIKV/Col, Vero cells, post-treated, vs untreated control 100%
# ZIKV/Col [4] = test: Quantification of intracellular viral genome by qRT-PCR, ZIKV/Col; type: cell-based, Zika virus
# DENV-2 = conditions: postinfection stages; cited from earlier work
# BHK-21 cells = test: Cytotoxicity CC100 in BHK-21 cells (6 days)
# [5] = tested on: DENV-2 (Dengue virus type 2); test: Plaque reduction assay (PFU), DENV-2 in BHK21; type: cell-based; conditions: DENV-2, BHK21, PFU/well 150 ± 25
# [6] = tested on: herpes virus type 2 (HHV-2); conditions: cited from earlier work
# [7] = MTT cytotoxicity assay (CC50); conditions: chlorocebus sabaeus
# ZIKV strain (COL345Si) = test: Post-infection stage evaluation assay (plaque), ZIKV COL345Si
# [8] = tested on: endemic chikungunya virus of Colombian origin; test: Post-infection stage evaluation assay (plaque), CHIKV
# [9] = tested on: CHIKV (Chikungunya virus); test: End-point titration technique (EPTT), viral titer reduction factor, CHIKV in Vero E6; type: cell-based; conditions: Vero E6, 10TCID50, EPTT
structure (smiles),measurement,setting,value
"CC(C)c1cc2c(cc1O)[C@@]1(C)CCC[C@@](C)(CN3C(=O)c4ccccc4C3=O)[C@@H]1CC2 [Compound 6, 18-(phthalimid-2-yl)ferruginol]","Nontoxic concentration that showed a higher viral reduction factor, in μM","ZIKV (Zika virus); ZIKV PFU assay, conversion of 3.1 μg/mL",ca. 7.2 μM
same,% inhibition (PFU),"ZIKV (Zika virus); ZIKV, Vero E6, PFU/well 150 ± 25",52 ± 13%
same,EC50,[1],5 to 10 µM
same,EC50,"Zika_459148 virus strain; Zika virus, Vero C1008, 72 h, read-out: EC50 anti-Zika_459148 virus",6.3 ± 2.7 µM
same,SI (CC50/EC50),"Zika_459148 virus strain; Zika_459148, 72 h",30
same,"viral protein production, percentages of infection",ZIKV/Col [2],below 50%
same,CC100 (100% cytotoxic concentration),Vero-E6 cells,>50 µg/mL
same,"percentage of infection (infectious viral particles, plaque assay)",ZIKV/Col [3]; 3.1 μg/mL,62.7%
same,"percentage of infection (infectious viral particles, plaque assay)",ZIKV/Col [3]; 6.2 μg/mL,31.3%
same,"percentage of infection (infectious viral particles, plaque assay)",ZIKV/Col [3]; 12.5 μg/mL,20.9%
same,"percentage of infection (infectious viral particles, plaque assay)",ZIKV/Col [3]; 25.0 μg/mL,7.0%
same,EC50,"ZIKV/Col [3]; Zika virus, read-out: EC50 ZIKV/Col",9.9 µM
same,"number of genome copies/mL, percentage of untreated control",ZIKV/Col [4]; 3.1 μg/mL,125.9%
same,replication of viral genome,"ZIKV/Col [4]; cultures treated with 6.2, 12.5, and 25.0 μg/mL",significantly inhibited
same,EC50,DENV-2,1400 nM
same,CC100 (100% cytotoxic concentration),BHK-21 cells,>50 µg/mL
same,% inhibition (PFU),[5],91 ± 7%
same,EC50,[6],19.2 µM
same,CC50 at 72 h,[7],192 µM
same,CC50 at 144 h,[7],80.8 µM
same,SI (CC50/EC50),"ZIKV strain (COL345Si); ZIKV COL345Si, 6 days",15
same,EC50,"ZIKV strain (COL345Si); Zika virus, 144 h, read-out: EC50 ZIKV strain COL345Si",5.3 ± 2.9 µM
same,SI (CC50/EC50),[8]; CHIKV,19.6
same,EC50,"[8]; Chikungunya virus, read-out: EC50 chikungunya virus",9.8 µM
same,Rf (reduction factor of the viral titer),[9],10^2
